Where two headings read alike, the source gives them in different places.
Tests used:
[1] = test system: monocytes; assay: Lipopolysaccharide-activated monocyte TNF production assay (LPS induced TNF release); format: cell-based, human; conditions: LPS induced TNF release from monocytes, read-out: LPS induced TNFa
In short: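 Adherent monocytes from human PBMCs were pretreated with compound 60 min, then stimulated with E. coli LPS (30 ng/mL stock added) for 4 h at 37 °C. Supernatant TNF-α measured by sandwich ELISA; concentration giving 50% TNF reduction derived by polynomial fit.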

[2] = test system: THP1 cells; assay: Lipopolysaccharide-activated THP1 cell TNF production assay; format: cell-based, human; conditions: LPS-induced TNF-α production in THP1 cells
In short: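 THP1 cells at 1E6/mL were stimulated with LPS (1 μg/mL prepared stock) alongside 3-fold serially diluted compound for 3 h at 37 °C. Secreted TNF-α was quantified by electrochemiluminescence sandwich immunoassay. Percent of DMSO control was fitted to a 4-parameter logistic equation.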

[3] = target: p38α (Homo sapiens, UniProt Q16539); assay: p38 in-vitro HTRF enzyme assay; format: biochemical; conditions: IC50 value ranges
In short: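 Activated recombinant human p38α with ATP and 100 nM GST-ATF2-Avitag, 1 h at RT in Tris pH 7.5/MgCl2 buffer; compound 10-point 3-fold series from about 1 μM final. HTRF 665/620 nm ratio; IC50 from 4-parameter fit, Ki via Cheng-Prusoff with experimental ATP Km.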

p38α, sequence (Q16539 whole entry): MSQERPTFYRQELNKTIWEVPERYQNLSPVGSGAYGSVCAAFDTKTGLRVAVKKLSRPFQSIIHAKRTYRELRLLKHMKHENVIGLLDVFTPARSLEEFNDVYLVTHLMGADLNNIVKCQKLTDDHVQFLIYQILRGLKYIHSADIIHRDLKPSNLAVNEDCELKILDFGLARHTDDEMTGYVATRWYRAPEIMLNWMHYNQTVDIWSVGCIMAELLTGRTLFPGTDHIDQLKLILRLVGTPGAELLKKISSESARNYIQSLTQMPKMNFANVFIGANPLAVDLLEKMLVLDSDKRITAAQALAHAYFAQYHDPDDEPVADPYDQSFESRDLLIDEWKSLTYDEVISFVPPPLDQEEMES

Row | Structure (SMILES) | IC50 ([1]; Homo sapiens, Monocyte) | IC50 ([2]; Homo sapiens, THP-1) | IC50 [3] | IC50 [1] | IC50 ([2]; read-out: THP-1 cell assay)
1 | Cc1ccc(C(=O)NC2CC2)cc1-c1ccn2c(C3CCCC3)nnc2c1 [Example 95, 3-(3-cyclopentyl[1,2,4]triazolo[4,3-a]pyridin-7-yl)-N-cyclopropyl-4-methylbenzamide] | 0.025 to 0.1 µM | < 0.025 µM | < 0.025 µM | – | –
2 | Cc1ccc(C(=O)NC2CC2)cc1-c1ccn2c(N3CCCC3)nnc2c1 [Example 96, N-cyclopropyl-4-methyl-3-(3-(1-pyrrolidinyl)[1,2,4]triazolo[4,3-a]pyridin-7-yl)benzamide] | 0.25 to 1 µM | 0.025 to 0.1 µM | < 0.025 µM | – | –
3 | Cc1ccc(C(=O)NC2CC2)cc1-c1ccn2c(C3CCOCC3)nnc2c1 [Example 97, N-cyclopropyl-4-methyl-3-(3-(tetrahydro-2H-pyran-4-yl)[1,2,4]triazolo[4,3-a]pyridin-7-yl)benzamide] | 0.1 to 0.25 µM | 0.025 to 0.1 µM | < 0.025 µM | – | –
4 | Cc1ccc(C(=O)NC2CC2)cc1-c1ccn2c(C34CC5CC(CC(C5)C3)C4)nnc2c1 [Example 98, N-cyclopropyl-4-methyl-3-(3-((3s,5s,7s)-tricyclo[3.3.1.1~3,7~]dec-1-yl)[1,2,4]triazolo[4,3-a]pyridin-7-yl)benzamide] | – | – | < 0.025 µM | 0.1 to 0.25 µM | 0.025 to 0.1 µM
5 | Cc1ccc(C(=O)NC2CC2)cc1-c1ccn2c(N3CCCCC3)nnc2c1 [Example 99, N-cyclopropyl-4-methyl-3-(3-(1-piperidinyl)[1,2,4]triazolo[4,3-a]pyridin-7-yl)benzamide] | 0.25 to 1 µM | 0.025 to 0.1 µM | < 0.025 µM | – | –
6 | Cc1ccc(C(=O)NC2CC2)cc1-c1ccn2c(N3CCOCC3)nnc2c1 [Example 101, N-cyclopropyl-4-methyl-3-(3-(4-morpholinyl)[1,2,4]triazolo[4,3-a]pyridin-7-yl)benzamide] | 0.1 to 0.25 µM | 0.1 to 0.25 µM | 0.025 to 0.1 µM | – | –
7 | Cc1ccc(C(=O)NC2CC2)cc1-c1ccn2c(C(F)(F)F)nnc2c1 [Example 102, N-cyclopropyl-4-methyl-3-(3-(trifluoromethyl)[1,2,4]triazolo[4,3-a]pyridin-7-yl)benzamide] | 0.25 to 1 µM | 0.25 to 1 µM | 0.1 to 0.25 µM | – | –
8 | CCc1ccccc1-c1nnc2cc(-c3cc(C(=O)NC4CC4)ccc3C)ccn12 [Example 103, N-cyclopropyl-3-(3-(2-ethylphenyl)[1,2,4]triazolo[4,3-a]pyridin-7-yl)-4-methylbenzamide] | 0.1 to 0.25 µM | 0.025 to 0.1 µM | < 0.025 µM | – | –
9 | Cc1ccc(C(=O)NC2CC2)cc1-c1ccn2c(-c3ccccc3C(F)(F)F)nnc2c1 [Example 104, N-cyclopropyl-4-methyl-3-(3-(2-(trifluoromethyl)phenyl)[1,2,4]triazolo[4,3-a]pyridin-7-yl)benzamide] | 0.1 to 0.25 µM | 0.025 to 0.1 µM | < 0.025 µM | – | –
10 | Cc1ccc(C(=O)NC2CC2)cc1-c1ccn2c(C(C)(C)C)nnc2c1 [Example 105, N-cyclopropyl-3-(3-(1,1-dimethylethyl)[1,2,4]triazolo[4,3-a]pyridin-7-yl)-4-methylbenzamide] | 0.025 to 0.1 µM | 0.025 to 0.1 µM | < 0.025 µM | – | –
11 | Cc1ccc(C(=O)Nc2ccon2)cc1-c1ccn2c(-c3c(F)cccc3F)nnc2c1 [Example 106, 3-(3-(2,6-difluorophenyl)[1,2,4]triazolo[4,3-a]pyridin-7-yl)-N-3-isoxazolyl-4-methylbenzamide] | < 0.025 µM | < 0.025 µM | < 0.025 µM | – | –

— patent US7700593B2, “Imidazo- and triazolo-pyridine compounds and methods of use thereof” (Amgen Inc., priority 2006, dated 2010)
